Blank lines part the entries; values can stand above or below the compound they belong to.
Assays:
[1] = Depletion of 1 µM filapixant in human hepatocytes in absence and presence of CYP3A4 selective and pan-CYP inhibitors; assay type: in vitro ADME; conditions: 1 µM filapixant, in presence of the inhibitor
pan-CYP = assay: as above; assay type: in vitro ADME; conditions: human, probe filapixant (1 µM, non-labeled), read-out: % of control CLint inhibited
[2] = Incubation of 1 µM [3H]filapixant in human liver microsomes with CYP isoform-selective inhibitors; assay type: in vitro ADME
[3] = Clinical drug-drug interaction study filapixant with itraconazole: pharmacokinetics; assay type: in vivo, human; conditions: plasma, study day 4, itraconazole 200 mg once daily oral solution
Procedure: Spontaneous reported adverse events were recorded as well adverse events that were reported after open-ended and non-leading verbal questioning of the participants to avoid bias. In addition, itraconazole concentrations were measured in plasma at selected time points to confirm that relevant inhibitory plasma levels were achieved.
The study was conducted in a single-center, open-label, fixed sequence design with two periods.
PK parameters were calculated by a non-compartmental analysis using the program WinNonlin version 5.3 (Pharsight Corporation, St. Louis, MO, USA), with the Automation Extension (version 2.90, Bayer Pharma AG, Wuppertal, Germany). The statistical evaluation was performed by using the software package SAS release 9.2 (SAS Institute Inc., Cary, NC, USA). All analyses were exploratory. Therefore, no multiplicity adjustments were performed.
The main PK metrics AUC and Cmax were statistically analyzed, assuming log-normally distributed data. Mean differences between treatments (and their standard error) were determined for logarithmized PK metrics. A total of 90% CIs for treatment differences were determined as well, applying standard methodology for log-normally distributed data. […] Only participants providing a valid PK profile from both study periods were to be included in the primary analysis.

CYP3A4 [4] = assay: Depletion of 1 µM filapixant in human hepatocytes in absence and presence of CYP3A4 selective and pan-CYP inhibitors; assay type: in vitro ADME; conditions: human, probe filapixant (1 µM, non-labeled), read-out: % of control CLint inhibited
CYP2J2 = target: T1, CYP2J2 (Homo sapiens, UniProt P51589); assay: Incubation of filapixant with human recombinant CYP2J2 (Supersomes); assay type: in vitro ADME; conditions: 1 µM [3H]filapixant, CYP2J2, 60 min
T1 construct: purchased
T1 sequence (P51589 1-502): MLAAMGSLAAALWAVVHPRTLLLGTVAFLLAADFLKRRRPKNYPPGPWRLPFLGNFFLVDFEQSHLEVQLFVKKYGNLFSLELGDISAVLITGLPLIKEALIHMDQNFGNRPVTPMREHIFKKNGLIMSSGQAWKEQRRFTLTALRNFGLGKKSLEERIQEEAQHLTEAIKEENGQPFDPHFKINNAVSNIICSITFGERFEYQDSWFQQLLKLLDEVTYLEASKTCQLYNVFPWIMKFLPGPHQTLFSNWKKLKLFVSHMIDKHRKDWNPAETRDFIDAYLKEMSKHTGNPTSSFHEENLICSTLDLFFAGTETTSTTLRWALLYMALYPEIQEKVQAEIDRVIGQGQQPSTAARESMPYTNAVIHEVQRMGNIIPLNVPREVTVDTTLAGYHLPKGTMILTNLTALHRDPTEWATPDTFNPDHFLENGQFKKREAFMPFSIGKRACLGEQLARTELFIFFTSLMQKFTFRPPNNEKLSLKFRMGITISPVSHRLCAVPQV

CYP2D6 = target: T2, CYP2D6 (Homo sapiens, UniProt P10635); assay: Incubation of filapixant with human recombinant CYP2D6 (Supersomes); assay type: in vitro ADME; conditions: 1 µM [3H]filapixant, CYP2D6, 60 min
T2 construct: purchased

CYP1A1 = target: T3, CYP1A1 (Homo sapiens, UniProt P04798); assay: Incubation of filapixant with human recombinant CYP1A1 (Supersomes); assay type: in vitro ADME; conditions: 1 µM [3H]filapixant, CYP1A1, 60 min
T3 construct: purchased
T3 sequence (P04798 1-512): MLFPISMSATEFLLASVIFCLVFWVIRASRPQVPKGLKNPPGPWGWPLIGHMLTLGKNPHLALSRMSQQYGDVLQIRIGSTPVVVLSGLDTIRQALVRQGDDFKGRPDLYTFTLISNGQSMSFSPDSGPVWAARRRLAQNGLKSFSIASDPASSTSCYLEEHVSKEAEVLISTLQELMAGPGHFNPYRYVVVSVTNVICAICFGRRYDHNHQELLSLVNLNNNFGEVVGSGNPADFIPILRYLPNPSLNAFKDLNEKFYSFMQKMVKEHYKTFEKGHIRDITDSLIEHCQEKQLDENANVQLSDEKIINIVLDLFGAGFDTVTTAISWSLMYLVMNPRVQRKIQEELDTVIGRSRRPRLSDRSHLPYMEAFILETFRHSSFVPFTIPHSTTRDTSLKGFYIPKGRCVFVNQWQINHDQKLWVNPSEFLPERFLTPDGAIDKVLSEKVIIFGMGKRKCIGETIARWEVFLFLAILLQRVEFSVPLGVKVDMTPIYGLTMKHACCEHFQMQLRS

[5] = Biotransformation of [3H]filapixant in human hepatocytes; assay type: in vitro ADME; conditions: [3H]filapixant 1 µM, 4 h of incubation, range in three batches
Procedure: (§1) The incubations were analyzed by high-performance liquid chromatography (HPLC) with tandem mass spectroscopy (MS/MS) followed by off-line radioactivity detection to generate metabolite profiles and elucidate or confirm the structures of the metabolites formed.

CYP3A4 [6] = target: T4, CYP3A4 (Homo sapiens, UniProt P08684); assay: Incubation of filapixant with human recombinant CYP3A4 (Supersomes); assay type: in vitro ADME; conditions: for Remaining drug and formation of metabolites, Peak Area: 1 µM [3H]filapixant, CYP3A4, 60 min; for Vmax of metabolite formation: filapixant in recombinant human CYP3A4 (25 pmol/mL), 20 min incubation
T4 construct: purchased

[7] = Biotransformation and enzyme kinetics of filapixant in human liver microsomes; assay type: in vitro ADME; conditions: [3H]filapixant 1 µM, pooled human liver microsomes, 1 h of incubation, n = 1
Procedure: as §1

[8] = as above; assay type: in vitro ADME; conditions: for Vmax of metabolite formation: filapixant in human liver microsomes (0.5 mg/mL), 30 min incubation; for Km at 30 min: human, human liver microsomes, probe filapixant (substrate), read-out: Km,app of metabolite formation
CYP3A5 = target: T5, CYP3A5 (Homo sapiens, UniProt P20815); assay: Incubation of [3H]filapixant with human recombinant CYP3A5 (Supersomes); assay type: in vitro ADME; conditions: 1 µM [3H]filapixant, CYP3A5, 60 min
T5 construct: purchased

CYP2C9 = target: T6, CYP2C9 (Homo sapiens, UniProt P11712); assay: Incubation of [3H]filapixant with human recombinant CYP2C9 (Supersomes); assay type: in vitro ADME; conditions: 1 µM [3H]filapixant, CYP2C9, 60 min
T6 construct: purchased

CYP4F2 = target: T7, CYP4F2 (Homo sapiens, UniProt P78329); assay: Incubation of [3H]filapixant with human recombinant CYP4F2 (Supersomes); assay type: in vitro ADME; conditions: 1 µM [3H]filapixant, CYP4F2, 60 min
T7 construct: purchased
T7 sequence (P78329 5-520): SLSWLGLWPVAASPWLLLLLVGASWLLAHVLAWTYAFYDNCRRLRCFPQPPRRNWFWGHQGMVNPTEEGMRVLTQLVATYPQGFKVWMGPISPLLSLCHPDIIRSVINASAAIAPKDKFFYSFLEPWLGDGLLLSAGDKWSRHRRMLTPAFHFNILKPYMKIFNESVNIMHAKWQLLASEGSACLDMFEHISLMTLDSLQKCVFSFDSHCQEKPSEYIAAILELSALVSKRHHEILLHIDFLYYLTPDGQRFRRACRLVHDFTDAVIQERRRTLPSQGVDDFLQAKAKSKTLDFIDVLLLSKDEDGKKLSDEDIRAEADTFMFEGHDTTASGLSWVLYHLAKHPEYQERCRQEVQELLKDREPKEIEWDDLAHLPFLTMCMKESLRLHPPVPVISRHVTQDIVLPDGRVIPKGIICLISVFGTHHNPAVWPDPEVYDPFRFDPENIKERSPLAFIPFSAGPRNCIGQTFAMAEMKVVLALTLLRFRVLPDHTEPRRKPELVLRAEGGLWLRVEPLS

CYP2B6 = target: T8, CYP2B6 (Homo sapiens, UniProt P20813); assay: Incubation of [3H]filapixant with human recombinant CYP2B6 (Supersomes); assay type: in vitro ADME; conditions: 1 µM [3H]filapixant, CYP2B6, 60 min
T8 construct: purchased
T8 sequence (P20813 1-491): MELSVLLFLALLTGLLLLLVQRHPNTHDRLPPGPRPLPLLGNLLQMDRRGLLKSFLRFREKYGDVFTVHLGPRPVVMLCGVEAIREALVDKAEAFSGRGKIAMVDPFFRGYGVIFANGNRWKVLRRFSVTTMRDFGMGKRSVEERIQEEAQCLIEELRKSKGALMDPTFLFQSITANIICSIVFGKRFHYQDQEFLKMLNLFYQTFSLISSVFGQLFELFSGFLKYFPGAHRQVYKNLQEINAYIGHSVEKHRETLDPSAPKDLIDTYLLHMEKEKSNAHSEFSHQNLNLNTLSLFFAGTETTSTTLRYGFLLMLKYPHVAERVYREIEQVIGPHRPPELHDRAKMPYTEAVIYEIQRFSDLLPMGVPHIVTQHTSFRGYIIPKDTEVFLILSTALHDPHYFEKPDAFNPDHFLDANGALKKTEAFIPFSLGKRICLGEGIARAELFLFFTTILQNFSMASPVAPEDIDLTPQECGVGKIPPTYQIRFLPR

CYP2C19 = target: T9, CYP2C19 (Homo sapiens, UniProt P33261); assay: Incubation of [3H]filapixant with human recombinant CYP2C19 (Supersomes); assay type: in vitro ADME; conditions: 1 µM [3H]filapixant, CYP2C19, 60 min
T9 construct: purchased

[9] = insect, 1 h, 1 µM
[10] = patients; cited from earlier work

T4 sequence (P08684 whole entry): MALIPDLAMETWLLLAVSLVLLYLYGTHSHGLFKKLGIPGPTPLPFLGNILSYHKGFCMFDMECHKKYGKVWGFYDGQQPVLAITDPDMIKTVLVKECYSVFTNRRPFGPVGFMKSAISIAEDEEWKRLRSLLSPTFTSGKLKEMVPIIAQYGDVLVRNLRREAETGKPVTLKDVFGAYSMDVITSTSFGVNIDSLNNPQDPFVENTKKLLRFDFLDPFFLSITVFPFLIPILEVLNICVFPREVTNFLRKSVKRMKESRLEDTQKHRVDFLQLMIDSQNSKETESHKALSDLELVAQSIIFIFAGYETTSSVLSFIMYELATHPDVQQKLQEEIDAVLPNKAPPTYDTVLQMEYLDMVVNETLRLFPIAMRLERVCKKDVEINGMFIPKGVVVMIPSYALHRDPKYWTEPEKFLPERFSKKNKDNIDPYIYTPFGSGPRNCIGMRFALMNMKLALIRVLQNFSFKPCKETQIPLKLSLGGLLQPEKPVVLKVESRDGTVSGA
T5 sequence (P20815 whole entry): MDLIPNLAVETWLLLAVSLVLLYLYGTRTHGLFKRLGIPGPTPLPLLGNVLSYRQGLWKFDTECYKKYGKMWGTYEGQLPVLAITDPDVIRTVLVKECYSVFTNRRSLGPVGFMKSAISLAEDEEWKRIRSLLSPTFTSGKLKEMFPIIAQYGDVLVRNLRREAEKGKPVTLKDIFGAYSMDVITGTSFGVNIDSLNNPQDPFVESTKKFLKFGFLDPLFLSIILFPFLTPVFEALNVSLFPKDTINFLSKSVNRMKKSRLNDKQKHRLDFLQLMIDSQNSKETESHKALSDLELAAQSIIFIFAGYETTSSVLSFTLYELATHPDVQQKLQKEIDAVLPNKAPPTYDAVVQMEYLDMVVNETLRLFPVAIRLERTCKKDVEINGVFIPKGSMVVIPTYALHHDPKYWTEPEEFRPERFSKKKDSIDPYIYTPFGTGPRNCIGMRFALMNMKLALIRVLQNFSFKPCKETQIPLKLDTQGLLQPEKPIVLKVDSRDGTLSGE
T6 sequence (P11712 whole entry): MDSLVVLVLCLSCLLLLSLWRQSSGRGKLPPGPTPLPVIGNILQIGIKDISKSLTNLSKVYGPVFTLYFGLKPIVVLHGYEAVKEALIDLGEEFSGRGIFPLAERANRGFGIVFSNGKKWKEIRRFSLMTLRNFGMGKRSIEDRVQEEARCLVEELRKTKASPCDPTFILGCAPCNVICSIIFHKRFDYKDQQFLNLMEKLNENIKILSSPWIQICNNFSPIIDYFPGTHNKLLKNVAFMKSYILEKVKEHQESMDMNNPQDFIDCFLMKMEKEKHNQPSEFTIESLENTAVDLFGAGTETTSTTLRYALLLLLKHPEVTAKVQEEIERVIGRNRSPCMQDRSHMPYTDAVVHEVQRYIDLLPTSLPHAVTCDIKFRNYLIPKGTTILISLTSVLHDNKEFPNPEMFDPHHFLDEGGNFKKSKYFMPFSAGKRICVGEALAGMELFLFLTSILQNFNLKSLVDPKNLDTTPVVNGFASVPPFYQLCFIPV
T2 sequence (P10635 whole entry): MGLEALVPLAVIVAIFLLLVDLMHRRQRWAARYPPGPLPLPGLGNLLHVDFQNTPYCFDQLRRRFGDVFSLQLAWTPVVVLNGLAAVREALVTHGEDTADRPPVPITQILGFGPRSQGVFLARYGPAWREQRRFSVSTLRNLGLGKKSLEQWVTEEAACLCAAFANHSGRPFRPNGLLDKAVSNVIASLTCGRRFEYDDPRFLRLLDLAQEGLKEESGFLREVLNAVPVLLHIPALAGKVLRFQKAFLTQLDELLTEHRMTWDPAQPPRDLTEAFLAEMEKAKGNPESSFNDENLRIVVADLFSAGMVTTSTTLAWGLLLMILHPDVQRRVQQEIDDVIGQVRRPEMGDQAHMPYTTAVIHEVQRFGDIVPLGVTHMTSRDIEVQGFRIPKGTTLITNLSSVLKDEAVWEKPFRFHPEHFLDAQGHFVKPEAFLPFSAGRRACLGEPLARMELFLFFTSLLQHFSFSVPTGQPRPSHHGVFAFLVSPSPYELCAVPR
T9 sequence (P33261 whole entry): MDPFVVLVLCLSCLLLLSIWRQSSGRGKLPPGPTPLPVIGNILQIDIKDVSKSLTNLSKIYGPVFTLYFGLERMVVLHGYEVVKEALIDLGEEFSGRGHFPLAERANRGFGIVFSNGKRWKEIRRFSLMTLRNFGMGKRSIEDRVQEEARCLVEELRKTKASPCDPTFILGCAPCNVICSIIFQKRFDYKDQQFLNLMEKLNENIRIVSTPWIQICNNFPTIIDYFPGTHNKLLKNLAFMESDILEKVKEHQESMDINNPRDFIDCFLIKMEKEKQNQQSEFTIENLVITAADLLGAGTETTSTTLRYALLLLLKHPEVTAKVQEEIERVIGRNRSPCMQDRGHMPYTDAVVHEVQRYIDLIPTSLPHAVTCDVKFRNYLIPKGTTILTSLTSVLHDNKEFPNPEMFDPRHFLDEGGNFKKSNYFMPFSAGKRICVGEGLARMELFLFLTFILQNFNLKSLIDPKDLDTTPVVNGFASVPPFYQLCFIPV

Structure (SMILES): Nn1nnc2ccccc21 [ABT, 1-Aminobenzotriazol]
Reduction of apparent CLint of filapixant compared to untreated control [1]: 90 to 95%
inhibition at 1000 µM (pan-CYP): 94.5%

Structure (SMILES): CCC(C)n1ncn(-c2ccc(N3CCN(c4ccc(OCC5COC(Cn6cncn6)(c6ccc(Cl)cc6Cl)O5)cc4)CC3)cc2)c1=O (centres unmarked) [Itraconazole, itraconazole]
Effect of inhibitor on drug depletion of [3H]filapixant and formation of metabolites [2]: inhibited
Mean maximum concentrations of itraconazole [3]: 1014.6 µg/L
inhibition at 2 µM (CYP3A4 [4]): 94.4%
Reduction of apparent CLint of filapixant compared to untreated control [1]: 90 to 95%

Structure (SMILES): COCC(=O)O[C@]1(CCN(C)CCCc2nc3ccccc3[nH]2)CCc2cc(F)ccc2[C@@H]1C(C)C [Mibefradil, mibefradil]
Effect of inhibitor on drug depletion of [3H]filapixant and formation of metabolites [2]: inhibited
inhibition at 2 µM (CYP3A4 [4]): 95.6%
Reduction of apparent CLint of filapixant compared to untreated control [1]: 90 to 95%

Structure (SMILES): CC[C@]1(C)C[C@@H](OC(=O)CSc2nnc(N)[nH]2)[C@]2(C)[C@H](C)CC[C@]3(CCC(=O)[C@H]32)[C@@H](C)[C@@H]1O [azamulin]
Effect of inhibitor on drug depletion of [3H]filapixant and formation of metabolites [2]: inhibited

Structure (SMILES): Cc1cnc(-c2cc(O[C@@H]3CCOC3)cc(C(=O)N[C@H](C)c3cnc(C(F)(F)F)nc3)c2)s1 [eliapixant]
Frequency of taste disturbances / taste-related side effects [10]: considerably reduced compared to gefapixant

Structure (SMILES): COc1cc(C(C)C)c(Oc2cnc(N)nc2N)cc1S(N)(=O)=O [gefapixant]
Frequency of taste disturbances / taste-related side effects [10]: high frequency

The remaining lines, values ahead:

Remaining drug and formation of metabolites, Peak Area (CYP2J2): 0.9 % of Radioactivity
Remaining drug and formation of metabolites, Peak Area (CYP2D6): 5.4 % of Radioactivity
Remaining drug and formation of metabolites, Peak Area (CYP1A1): 2.9 % of Radioactivity
Recovery of filapixant and metabolite formation, Hepatocytes [5]: 0.4–0.8 % of radioactivity
Remaining drug and formation of metabolites, Peak Area (CYP3A4 [6]): 0.5 % of Radioactivity
Recovery of filapixant and metabolite formation, Liver Microsomes [7]: 0.9 % of radioactivity
Structure (SMILES): C[C@@H](NC(=O)c1cc(OC[C@H]2CN(C)CCO2)cc(-c2ncc(CO)s2)c1)c1cnc(C(F)(F)F)nc1 [M-3]

Remaining drug and formation of metabolites, Peak Area (CYP1A1): 6.5 % of Radioactivity
Recovery of filapixant and metabolite formation, Hepatocytes [5]: 1.0–7.5 % of radioactivity
Vmax of metabolite formation [8]: 1.02E+04 peak area/pmol CYP/min
Vmax of metabolite formation (Michaelis-Menten plot, Figure S8) ([8]; human liver microsomes 0.5 mg/mL, 30 min, rate axis: area metabolite/min/mg): 1.021e+4
Km at 30 min [8]: 7.9 µM
Remaining drug and formation of metabolites, Peak Area (CYP3A5): 1.5 % of Radioactivity
Remaining drug and formation of metabolites, Peak Area (CYP3A4 [6]): 6.1 % of Radioactivity
Vmax of metabolite formation (CYP3A4 [6]): 9.20E+03 peak area/pmol CYP/min
Vmax of metabolite formation (Michaelis-Menten plot, Figure S7) (CYP3A4 [6]; recombinant CYP3A4 25 pmol/mL, 20 min, rate axis: area metabolite/min/mg): 9202.
Recovery of filapixant and metabolite formation, Liver Microsomes [7]: 7.6 % of radioactivity
Structure (SMILES): Cc1cnc(-c2cc(OC[C@H]3CN(C)C(=O)CO3)cc(C(=O)N[C@H](C)c3cnc(C(F)(F)F)nc3)c2)s1 [M-4]

Remaining drug and formation of metabolites, Peak Area (CYP2C9): 0.2 % of Radioactivity
Remaining drug and formation of metabolites, Peak Area (CYP4F2): 0.5 % of Radioactivity
Recovery of filapixant and metabolite formation, Hepatocytes [5]: 0–0.2 % of radioactivity
Remaining drug and formation of metabolites, Peak Area (CYP3A4 [6]): 0.4 % of Radioactivity
Structure (SMILES): C[C@@H](NC(=O)c1cc(OC[C@H]2CN(C)CCO2)cc(-c2ncc(C(=O)O)s2)c1)c1cnc(C(F)(F)F)nc1 [M-5]

Remaining drug and formation of metabolites, Peak Area (CYP1A1): 0.5 % of Radioactivity
Vmax of metabolite formation [8]: 1.32E+05 peak area/pmol CYP/min
Km at 30 min [8]: 68 µM
Remaining drug and formation of metabolites, Peak Area (CYP3A5): 0.8 % of Radioactivity
Remaining drug and formation of metabolites, Peak Area (CYP3A4 [6]): 6.0 % of Radioactivity
Vmax of metabolite formation (CYP3A4 [6]): 7.78E+04 peak area/pmol CYP/min
Recovery of filapixant and metabolite formation, Liver Microsomes [7]: 4.4 % of radioactivity
Remaining drug and formation of metabolites, Peak Area (CYP2B6): 0.4 % of Radioactivity
Structure (SMILES): Cc1cnc(-c2cc(O)cc(C(=O)N[C@H](C)c3cnc(C(F)(F)F)nc3)c2)s1 [M-6]

Remaining drug and formation of metabolites, Peak Area (CYP2J2): 0.7 % of Radioactivity
Remaining drug and formation of metabolites, Peak Area (CYP2C9): 0.2 % of Radioactivity
Remaining drug and formation of metabolites, Peak Area (CYP1A1): 0.7 % of Radioactivity
Recovery of filapixant and metabolite formation, Hepatocytes [5]: 0–1.7 % of radioactivity
Vmax of metabolite formation [8]: 4.34E+04 peak area/pmol CYP/min
Km at 30 min [8]: 28.5 µM
Remaining drug and formation of metabolites, Peak Area (CYP2C19): 0.2 % of Radioactivity
Remaining drug and formation of metabolites, Peak Area (CYP3A4 [6]): 3.4 % of Radioactivity
Vmax of metabolite formation (CYP3A4 [6]): 2.48E+04 peak area/pmol CYP/min
Recovery of filapixant and metabolite formation, Liver Microsomes [7]: 2.4 % of radioactivity
Structure (SMILES): CNC[C@@H](O)COc1cc(C(=O)N[C@H](C)c2cnc(C(F)(F)F)nc2)cc(-c2ncc(C)s2)c1 [M-8]

Remaining drug and formation of metabolites, Peak Area [9]: 0.2 % of Radioactivity
Recovery of filapixant and metabolite formation, Hepatocytes [5]: 0–0.3 % of radioactivity
Remaining drug and formation of metabolites, Peak Area (CYP3A4 [6]): 1.9 % of Radioactivity
Structure (SMILES): Cc1cnc(-c2cc(OC[C@H](O)CN)cc(C(=O)N[C@H](C)c3cnc(C(F)(F)F)nc3)c2)s1 [M-11]
